# From patent US11891405B2, “Furo[3,4-b]pyrrole-containing BTK inhibitor” (CHIA TAI TIANQING PHARMACEUTICAL GROUP CO., LTD., priority 2018, dated 2024)
# Experiments:
# [1] = biological target: T1, TEC (Homo sapiens, UniProt P42680); assay: Screening for TEC inhibitory activity; type: biochemical
# T1 sequence (P42680 1-631): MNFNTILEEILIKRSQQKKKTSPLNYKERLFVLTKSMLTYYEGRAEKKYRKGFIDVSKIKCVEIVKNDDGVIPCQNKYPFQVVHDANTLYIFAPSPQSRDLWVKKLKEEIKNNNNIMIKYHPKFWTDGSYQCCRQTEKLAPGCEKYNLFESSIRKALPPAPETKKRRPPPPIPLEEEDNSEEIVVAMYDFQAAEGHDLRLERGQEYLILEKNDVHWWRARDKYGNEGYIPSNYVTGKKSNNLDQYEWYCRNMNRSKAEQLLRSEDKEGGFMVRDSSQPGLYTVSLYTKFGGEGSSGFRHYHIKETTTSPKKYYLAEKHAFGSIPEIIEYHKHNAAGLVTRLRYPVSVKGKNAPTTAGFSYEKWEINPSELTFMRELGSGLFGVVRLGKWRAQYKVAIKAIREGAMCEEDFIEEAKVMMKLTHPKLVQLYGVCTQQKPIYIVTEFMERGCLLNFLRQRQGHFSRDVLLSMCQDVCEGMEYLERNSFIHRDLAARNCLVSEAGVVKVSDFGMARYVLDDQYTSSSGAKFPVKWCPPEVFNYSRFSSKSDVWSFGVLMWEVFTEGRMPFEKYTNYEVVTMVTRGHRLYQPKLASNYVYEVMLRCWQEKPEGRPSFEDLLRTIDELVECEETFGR
# Description: 1.3 Screening for TEC Inhibitory Activity
# 50 ng/μL TEC stock solution was diluted with kinase buffer (50 mM HEPES, 10 mM MgCl2, 2 mM DTT, 1 mM EGTA, 0.01% Tween 20), and 6 μL of 1.67× working solution at […] (final concentration: 0.008 ng/μL) was added to each well. Different compounds dissolved in DMSO were added to the wells using a nanoliter pipettor, resulting in the final concentration of 1000 nM to 0.24 nM (4-fold gradient for 7 concentrations in total), and blank control wells (without enzyme) and negative control wells (with enzyme, plus vehicle DMSO) were set. After enzyme was reacted with the compound or vehicle for 30 min, 5×ATP at 50 μM (final concentration: 10 μM) prepared with kinase buffer was mixed with 5× substrate at 0.5 μM (final concentration: 0.1 μM, ULight-poly GT) at a ratio of 1:1, and the mixture was added to each well at 4 μL/well. After being sealed with a film, the plate was incubated at room temperature for 2 h, then 5 μL of 4×EDTA at 40 mM (final concentration: 10 mM) was added to each well. After the plate was incubated for 5 min at room temperature, 5 μL of 4× detection reagent at 8 nM (final concentration: 2 nM, Eu-anti-phospho-tyrosine antibody) was added to each well, followed by incubation at room temperature for 1 h. The plate was read using a PE Envision multi-functional microplate reader (excitation: 320 nm, emission: 665 nm), and IC50 was calculated by four-parameter fitting.
# [2] = biological target: T2, BTK (Y223) phosphorylation in Ramos lymphoma cells (Homo sapiens, UniProt Q06187); assay: BTK (Y223) phosphorylation inhibition at cell level; type: cell-based
# T2 construct: Ramos lymphoma cells in logarithmic growth phase were centrifuged; endogenous in cells; host or cells: Ramos lymphoma cells
# Description: EXPERIMENTAL EXAMPLE 2: SCREENING FOR BTK (Y223) PHOSPHORYLATION INHIBITION ACTIVITY AT CELL LEVEL
# 20 μL of 30% hydrogen peroxide was added in 860 μL of double distilled water to prepare 200 mM hydrogen peroxide. PV (sodium pervanadate): 10 μL of 200 mmol/L sodium orthovanadate was reacted with 10 μL of 200 mmol/L hydrogen peroxide in 80 μL of RPMI 1640 complete medium at room temperature for 15 min, and the reaction solution was diluted with RPMI 1640 complete medium to 6 mM. It was prepared freshly prior to use. Ramos lymphoma cells in logarithmic growth phase were centrifuged at 1500 rpm for 3 min using a low-speed centrifuge, added with a proper amount of RPMI 1640 complete medium, resuspended and counted. A proper amount of corresponding culture medium was added to a proper amount of cell suspension to adjust the cell density to about 1-2×10E7 cells/mL. The cells at the above cell density were seeded in a 384-well plate at 20 μL/well, then 5 μL of compound was added to each well, and the plate was incubated for 1 h. 20 mM PV was diluted with RPMI 1640 complete medium to 6 mM (final concentration: 1 mM), added to wells at 5 μL/well according to the plate distribution, and incubated for 15-20 min. The blank group was wells seeded with cells, without compound and PV, and the control group was wells seeded with cells, without compound and with PV. 10 μL of lysis buffer (4×) containing blocking buffer was added immediately and incubated by shaking at room temperature for 30 min. After the mixture was mixed, 16 μL of lysate was transferred to another 384-well small-volume white plate. The plate was added with 4 μL of pre-mixed antibody (vol/vol) in assay buffer, covered, centrifuged to mix well, and incubated overnight at room temperature. The 665 nm/620 nm signal value was detected using a PE Envision multi-functional microplate reader, and IC50 was calculated by four-parameter fitting.
# [3] = biological target: BTK(WT) (Homo sapiens, UniProt Q06187); assay: Screening for BTK inhibitory activity; type: biochemical
# Description: 1.1 Screening for BTK Inhibitory Activity
# 350 ng/μL BTK stock solution was diluted with kinase buffer (50 mM HEPES, 10 mM MgCl2, 2 mM DTT, 1 mM EGTA, 0.01% Tween 20), and 6 μL of 1.67× working solution at 0.0334 ng/μL (final concentration: 0.02 ng/μL) was added to each well. Different compounds dissolved in DMSO were added to the wells using a nanoliter pipettor, resulting in the final concentration of 1000 nM to 0.244 nM (4-fold gradient for 7 concentrations in total), and blank control wells (without enzyme) and negative control wells (with enzyme, plus vehicle DMSO) were set, 2 replicate wells for each well. After enzyme was reacted with the compound or vehicle for 30 min, 5×ATP at 100 μM (final concentration: 20 μM) prepared with kinase buffer was mixed with 5×substrate at 0.5 μM (final concentration: 0.1 μM, ULight-poly GT) at a ratio of 1:1, and the mixture was added to each well at 4 μL/well. After being sealed with a film, the plate was incubated at room temperature for 2 h, then 5 μL of 4×EDTA at 40 mM (final concentration: 10 mM) was added to each well. After the plate was incubated for 5 min at room temperature, 5 μL of 4× detection reagent at 8 nM (final concentration: 2 nM, Ab) was added to each well, followed by incubation at room temperature for 1 h. The plate was read using a PE Envision multi-functional microplate reader ([…], emission: 665 nm), and IC50 was calculated by four-parameter fitting.
# Chain of BTK(WT) (Q06187 whole entry): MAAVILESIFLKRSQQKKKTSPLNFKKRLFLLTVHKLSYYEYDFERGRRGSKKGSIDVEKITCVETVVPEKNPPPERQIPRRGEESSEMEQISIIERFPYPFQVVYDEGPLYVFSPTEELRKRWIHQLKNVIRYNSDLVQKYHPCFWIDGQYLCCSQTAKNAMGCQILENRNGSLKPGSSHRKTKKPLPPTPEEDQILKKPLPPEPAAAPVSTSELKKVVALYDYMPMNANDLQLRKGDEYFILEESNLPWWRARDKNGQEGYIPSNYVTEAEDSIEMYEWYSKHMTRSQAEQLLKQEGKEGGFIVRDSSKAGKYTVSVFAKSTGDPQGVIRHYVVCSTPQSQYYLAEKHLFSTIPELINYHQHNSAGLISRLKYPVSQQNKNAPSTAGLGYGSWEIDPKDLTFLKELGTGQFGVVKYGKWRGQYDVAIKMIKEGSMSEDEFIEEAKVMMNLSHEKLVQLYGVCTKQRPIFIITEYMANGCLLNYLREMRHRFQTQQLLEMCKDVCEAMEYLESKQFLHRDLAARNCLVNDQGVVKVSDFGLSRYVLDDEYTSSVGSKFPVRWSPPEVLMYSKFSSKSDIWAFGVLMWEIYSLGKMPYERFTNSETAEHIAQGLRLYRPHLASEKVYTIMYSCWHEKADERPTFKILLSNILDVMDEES
# T2 sequence (Q06187 whole entry): as above
Structure (SMILES),IC50 [1] [nM],IC50 [2] [nM],IC50 [3] [nM]
"CC#CC(=O)N1[C@@H]2COC[C@@H]2C[C@H]1c1nc(-c2ccc(C(=O)Nc3ccccn3)cc2)c2c(N)nccn12 [Compound I-1, 4-(8-amino-3-((2S,3aR,6aS)-1-(but-2-ynoyl)hexahydro-1H-furo[3,4-b]pyrrol-2-yl)imidazo [1,5-a]pyrazin-1-yl)-N-(pyridin-2-yl)benzamide]",155,30,52.1
"C=CC(=O)N1[C@@H]2COC[C@@H]2C[C@H]1c1nc(-c2ccc(C(=O)Nc3ccccn3)cc2)c2c(N)nccn12 [Compound I-3, 4-(3-((2S,3AR,6AS)-1-ACRYLOYLHEXAHYDRO-1H-FURO[3,4-B]PYRROL-2-YL)-8-AMINOIMIDAZO [1,5-A]PYRAZIN-1-YL)-N-(PYRIDIN-2-YL)BENZAMIDE]",111,25,21.4
"CC#CC(=O)N1[C@@H]2COC[C@@H]2C[C@H]1c1nc(-c2ccc(C(=O)Nc3cc(C(F)(F)F)ccn3)cc2F)c2c(N)nccn12 [Compound I-4, 4-(8-AMINO-3-((2S,3AR,6AS)-1-(BUT-2-YNOYL)HEXAHYDRO-1H-FURO[3,4-B]PYRROL-2-YL)IMIDAZO[1,5-A]PYRAZIN-1-YL)-3-FLUORO-N-(4-(TRIFLUOROMETHYL)PYRIDIN-2-YL)BENZAMIDE]",25,66,12.4
"Nc1nccn2c([C@@H]3C[C@H]4COC[C@H]4N3C(=O)C3CC3)nc(-c3ccc(C(=O)Nc4cc(C(F)(F)F)ccn4)cc3F)c12 [Compound I-7, 4-(8-AMINO-3-((2S,3AR,6AS)-1-(CYCLOPROPANECARBONYL)HEXAHYDRO-1H-FURO[3,4-B]PYRROL-2-YL)IMIDAZO[1,5-A]PYRAZIN-1-YL)-3-FLUORO-N-(4-(TRIFLUOROMETHYL)PYRIDIN-2-YL)BENZAMIDE]",,52,9.7
